Data from the NIST ThermoML archive (doi:10.1016/j.jct.2011.06.012).

Test: xn = mol fraction of the nth substance listed
Settings: Liquid, Bellows volumetry

CC(C)C [2-methylpropane] + O=C=O
mass density [kg/m3]
Settings | 280 K | 300 K | 320 K | 340 K | 360 K | 380 K | 400 K | 420 K | 440 K
3000 kPa, x2 = 0.2482 | 611.63 | – | – | – | – | – | – | – | –
3000 kPa, x2 = 0.4718 | 651.84 | – | – | – | – | – | – | – | –
5000 kPa, x2 = 0.2482 | 615.96 | – | 552.16 | – | – | – | – | – | –
5000 kPa, x2 = 0.4718 | 658.57 | 614.91 | 560.46 | – | – | – | – | – | –
5000 kPa, x2 = 0.7506 | 741.3 | – | – | – | – | – | – | – | –
10000 kPa, x2 = 0.2482 | 625.46 | – | 569.21 | – | 501.22 | – | 408.28 | – | –
10000 kPa, x2 = 0.4718 | 672.04 | 634.66 | 592.64 | 543.45 | 481.3 | – | – | – | –
10000 kPa, x2 = 0.7506 | 765.85 | – | 614.39 | – | – | – | – | – | –
20000 kPa, x2 = 0.2482 | 641.52 | – | 593.88 | – | 542.86 | – | 486.62 | – | 428.1
20000 kPa, x2 = 0.4718 | 693.75 | 662.67 | 630.32 | 596.56 | 560.5 | 521.68 | 481.65 | 441.54 | 402.95
20000 kPa, x2 = 0.7506 | 800.45 | – | 697.56 | – | 574.95 | – | – | – | –
30000 kPa, x2 = 0.2482 | 655.06 | – | 611.98 | – | 568.79 | – | 523.46 | – | 479.05
30000 kPa, x2 = 0.4718 | 710.92 | 683.38 | 655.66 | 627.77 | 598.86 | 568.93 | 539.19 | 509.95 | 481.23
30000 kPa, x2 = 0.7506 | 826.02 | – | 740.51 | – | 649.75 | – | 557.06 | – | 473.55
40000 kPa, x2 = 0.2482 | 665.95 | – | 627.15 | – | 588.52 | – | 548.72 | – | 511.07
40000 kPa, x2 = 0.4718 | 725.26 | 700.1 | 675.36 | 650.8 | 625.7 | 600.05 | 574.86 | 550.57 | 526.82
40000 kPa, x2 = 0.7506 | 846.38 | – | 771.26 | – | 694.72 | – | 618.58 | – | 548.5
50000 kPa, x2 = 0.2482 | 676.07 | – | 639.69 | – | 604.55 | – | 568.35 | – | 534.44
50000 kPa, x2 = 0.4718 | 737.44 | 714.21 | 691.66 | 669.07 | 646.76 | 623.65 | 601.24 | 579.87 | 559.05
50000 kPa, x2 = 0.7506 | 863.38 | – | 795.16 | – | 727.44 | – | 660.8 | – | 599.76
60000 kPa, x2 = 0.2482 | 684.83 | – | 650.61 | – | 617.73 | – | 584.33 | – | 553.6
60000 kPa, x2 = 0.4718 | 748.54 | 726.58 | 705.67 | 684.42 | 664.02 | 642.83 | 622.39 | 602.9 | 584.01
60000 kPa, x2 = 0.7506 | 878.75 | – | 815.43 | – | 753.47 | – | 693.37 | – | 637.87
70000 kPa, x2 = 0.2482 | 693.01 | – | 660.32 | – | 629.43 | – | 598.36 | – | 569.47
70000 kPa, x2 = 0.4718 | 758.63 | 737.54 | 717.84 | 697.86 | 678.79 | 658.77 | 640.1 | 622.11 | 604.56
70000 kPa, x2 = 0.7506 | 892.04 | – | 832.58 | – | 775.21 | – | 719.26 | – | 668.37
80000 kPa, x2 = 0.2482 | 700.46 | – | 669.23 | – | 639.78 | – | 610.26 | – | 583.24
80000 kPa, x2 = 0.4718 | 767.66 | 747.72 | 728.73 | 709.95 | 691.87 | 672.89 | 655.36 | 638.65 | 622.24
80000 kPa, x2 = 0.7506 | 904.12 | – | 847.76 | – | 793.79 | – | 741.54 | – | 694.04
90000 kPa, x2 = 0.2482 | 707.4 | – | 677.43 | – | 649.26 | – | 620.93 | – | 595.28
90000 kPa, x2 = 0.4718 | 775.73 | 756.68 | 738.7 | 720.77 | 703.51 | 685.61 | 668.68 | 652.88 | 637.3
90000 kPa, x2 = 0.7506 | 915.3 | – | 861.33 | – | 810.34 | – | 760.76 | – | 716.21
100000 kPa, x2 = 0.2482 | 713.94 | – | 685.01 | – | 658 | – | 630.87 | – | 606.31
100000 kPa, x2 = 0.4718 | 783.73 | 764.82 | 748.11 | 730.63 | 714.09 | 697.01 | 680.77 | 665.6 | 650.87
100000 kPa, x2 = 0.7506 | 925.43 | – | 873.81 | – | 825.34 | – | 778 | – | 735.56
120000 kPa, x2 = 0.2482 | 725.79 | – | 698.63 | – | 673.4 | – | 647.91 | – | 625.43
120000 kPa, x2 = 0.4718 | 797.65 | 780.34 | 764.51 | 748.22 | 733.04 | 716.82 | 701.98 | 688.04 | 674.34
120000 kPa, x2 = 0.7506 | 944.22 | – | 895.88 | – | 851.1 | – | 807.55 | – | 768.56
140000 kPa, x2 = 0.2482 | 736.43 | – | 710.75 | – | 686.88 | – | 662.89 | – | 641.8
140000 kPa, x2 = 0.4718 | 810.05 | 794.03 | 778.96 | 764.19 | 749.43 | 734.35 | 720.03 | 707.29 | 694.6
140000 kPa, x2 = 0.7506 | 960.61 | – | 915.09 | – | 872.92 | – | 832.23 | – | 796.08
160000 kPa, x2 = 0.2482 | 746.22 | – | 721.58 | – | 699.29 | – | 675.97 | – | 656.01
160000 kPa, x2 = 0.4718 | 821.36 | 805.98 | 791.76 | 777.55 | 763.95 | 749.48 | 735.72 | 723.63 | 711.68
160000 kPa, x2 = 0.7506 | 975.64 | – | 932.24 | – | 892.29 | – | 854.07 | – | 819.85
180000 kPa, x2 = 0.2482 | 755.07 | – | 731.49 | – | 710.13 | – | 687.97 | – | 668.66
180000 kPa, x2 = 0.4718 | 831.97 | 817 | 803.87 | 790.06 | 777.13 | 763.2 | 749.97 | 738.5 | 726.86
180000 kPa, x2 = 0.7506 | 989.13 | – | 947.81 | – | 909.66 | – | 873.25 | – | 840.83
200000 kPa, x2 = 0.2482 | 763.28 | – | 740.45 | – | 720.21 | – | 698.66 | – | 680.35
200000 kPa, x2 = 0.4718 | 841.63 | 827.43 | 814.43 | 801.25 | 789.12 | 775.73 | 763.13 | 752.04 | 741.37
200000 kPa, x2 = 0.7506 | 1001.91 | – | 962.05 | – | 925.27 | – | 890.48 | – | 859.57
